Article PMC10644720 (Frontiers in Pharmacology, 2023)

Experiments:
[1] = system: thrombin; parameters: method as in Choi et al. (2015); conditions: ref Choi et al. (2015); cited from earlier work
[2] = system: NOXs; assay: NADPH oxidase (NOX) activity assay in platelet lysate; format: cell-based, human; conditions: convulxin (5 ng/mL)- and collagen (10 μg/mL)-induced; VAS2870 10 μM
Experimental: MDA, SOD, GPx, and NADPH oxidase activity were measured as previously described ([Krotz et al., 2002]; [Paul et al., 2019]; [Pan et al., 2021]). After incubation and activation, the reaction was stopped by adding 10 mM EGTA. The platelets were pelleted by centrifugation at 20,000 × g for 10 min at 4°C and resuspended in Tyrode’s buffer with 0.1% phosphatase and protease inhibitors (Cat No. 04906837001, Roche Applied Science, Penzberg, Germany; Cat No. P-8340, Sigma, St. Louis, MO, United States). The platelets were disrupted by passing them 10 times through a 29-gauge needle, followed by centrifugation at 2000 × g for 10 min at 4°C to separate the supernatant and precipitate. The detection of MDA, SOD, and GPx in the supernatant was performed according to the kit’s instructions for SOD (Cat No. BC0170, Solarbio Life Science, Beijing, China), MDA (Cat No. S0131S, Beyotime Institute of Biotechnology, Shanghai, China) and GPx (Cat No. S0056, Beyotime Institute of Biotechnology, Shanghai, China). In order to determine NADPH oxidase (NOX) activity, platelet lysate (12.5 μg) was incubated with 10 µM lucigenin and 0.5 mM NADPH at 37°C in the dark. The absorbance values were detected at 450 nm using a spectrophotometer Multiskan FC (ThermoFisher Scientific Inc., Waltham, MA, United States). Protein content was determined by the Bradford method.

[3] = system: human washed platelets; assay: Platelet ATP release assay (luciferin/luciferase); format: cell-based; conditions: for IC50: Homo sapiens, Platelet
Experimental: Blood was collected from a median cubital vein using a 3.8% sodium citrate anticoagulation tube with a 1:9 dilution ratio. The platelets were washed using a previously described method with slight modification ([Babur et al., 2020]; [Uphaus et al., 2022]). The blood was centrifuged at room temperature at 300 × g for 10 min to separate platelet-rich plasma (PRP). PRP was added to 50 ng/mL of PGE1 and 5 mM EDTA, centrifuged at 2,000 × g for 2 min at room temperature, and the platelet precipitate was obtained after discarding the supernatant. The modified HEPES-Tyrode’s buffer (20 mM 4-(2-Hydroxyethyl)-1-piperazine ethane sulfonic acid [HEPES], pH 7.3, 129 mM NaCl, 2.9 mM KCl, 12 mM NaHCO3, 0.34 mM Na2HPO4, 20 mM HEPES, 5 mM D-Glucose, 1 mM MgCl2) was used to resuspend the platelets, added with 50 ng/mL PGE1 and 5 mM EDTA, and the platelets were washed by centrifugation at 2,000 ×g for 2 min at room temperature. The washed platelets (WP) were resuspended using modified HEPES-Tyrode’s buffer, and the platelet count was adjusted to 150–200 × 10^9/L.
Platelet aggregation and ATP release were detected using the Chrono-Log platelet aggregation instrument (Chrono-Log Corp., Havertown, Pennsylvania, United States), as previously reported ([Babur et al., 2020]). […] In addition, 1 mM CaCl2 and different platelet activators (ADP, collagen, and thrombin; Chrono-Log Corp., Havertown, Pennsylvania, United States; U46619, from Sigma, St. Louis, MO, United States; convulxin, sc-202554 from Santa Cruz Biotechnology, Santa Cruz, CA, United States) were added to each group before the start of the aggregation assay. For the ATP release experiments, the platelets were incubated with 50 ng/mL luciferin and D-luciferase (Cat No. 395; Chrono-Log Corp.) for 2 min before the addition of activators. The platelet aggregation and ATP release curves were traced during experiments.

[4] = system: human washed platelets; assay: Platelet ROS release assay (DCFH-DA); format: cell-based; conditions: for IC50: Homo sapiens, Platelet; for effect on platelet ROS release: luteolin 25 μM, BAY61-3606 63 nM
Experimental: The assay was performed as previously reported with minor modifications ([Arthur et al., 2012]; [Ye et al., 2020]). Briefly, WPs (500 × 10^9/L) were labeled with 5 μM Fluo-3AM (Cat No. IF0150; Solarbio) or 10 μM DCFH-DA (Cat No. D6883; Sigma, St. Louis, MO, United States) at 37°C for 30 min protected from light. […] In addition, 1 mM CaCl2 and collagen or convulxin were added to start the reaction. […] A ROS probe via a fluorescent enzyme marker was added. O2 ^− and H2O2 were measured using 2 μM Amplex Red (Cat No. ST010; Beyotime Institute of Biotechnology, Shanghai, China) or 2 μM Dihydroethidium (DHE, Cat No. S0063; Beyotime Institute of Biotechnology, Shanghai, China). O2 ^− and H2O2 were analyzed using a Fluoroskan Ascent fluorometer (Thermo Fisher, Waltham, Massachusetts, United States).

[5] = target: T1, rhGPVI (Homo sapiens, UniProt Q9HCN6); assay: Solid phase binding assay (rhGPVI binding to immobilized collagen); conditions: rhGPVI 30 nM; collagen 5 μg/mL coated; read-out: IC50, inhibition of binding of rhGPVI to collagen
T1 construct: rhGPVI was expressed and purified according to the method reported in the literature; made in house
T1 sequence (Q9HCN6 21-203 limits assumed): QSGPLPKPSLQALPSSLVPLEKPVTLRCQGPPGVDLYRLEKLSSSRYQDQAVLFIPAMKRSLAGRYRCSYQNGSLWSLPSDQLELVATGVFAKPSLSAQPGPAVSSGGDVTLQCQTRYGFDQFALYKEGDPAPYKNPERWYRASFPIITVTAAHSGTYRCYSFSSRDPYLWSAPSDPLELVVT
Experimental: rhGPVI was expressed and purified according to the method reported in the literature ([Horii et al., 2006]). rhGPVI was cross-linked with 10 μg/mL of cross-linking antibody His Tag Horseradish Peroxidase-conjugated Antibody (Cat. MAB050H; R&D Systems, Minneapolis, MN, United States). Solid phase assays were performed based on previously described procedures ([Billiald et al., 2023]). Collagen (5 μg/mL prepared in PBS) was used to coat 96-well plates overnight at 4°C. Non-specific sites were closed by Superblock (Cat. 37580; Thermo Fisher Scientific, Waltham, MA, United States). […] 1-StepTM Ultra TMB-ELISA (Cat. 34022; Thermo Fisher Scientific, Waltham, MA, United States) was developed, and the reaction was stopped with a 2 M sulphuric acid solution. Absorbance values were read at 450 nm. At least three washes were performed with PBS between each of the above steps. Each spot was measured three times.

## O=c1cc(-c2ccc(O)c(O)c2)oc2cc(O)cc(O)c12 [Luteolin]
[1]
  thrombin activity: effectively inhibits
[2]
  NOXs activity: significantly decreased
[3]; read-out: IC50, inhibition of ATP release, convulxin-induced
  IC50: 2.37 µM
[3]; collagen-induced, read-out: IC50, inhibition of ATP release
  IC50: 2.67 µM
[3]; convulxin- and collagen-induced, concentration-dependent
  effect on platelet ATP release: significantly inhibited
[4]; read-out: IC50, inhibition of ROS release, convulxin (5 ng/mL)-induced
  IC50: 3.51 µM
[4]; collagen (10 μg/mL)-induced, read-out: IC50, inhibition of ROS release
  IC50: 2.06 µM
[4]; collagen (10 μg/mL)-induced
  effect on platelet ROS release: decreasing levels
[4]; convulxin (5 ng/mL)-induced
  effect on platelet ROS release: decreased
[5]
  IC50: 5.49 µM
